The values that follow come from US7531312B2, “Simplified biological evaluation method of natural and artificial chemicals by using DNA injury index and apparatus therefor” (TAS Project Co., Ltd., priority 2000, dated 2009).

Data set [1] relates to 2′-deoxyguanosine (dG). Briefly: 8OHdG produced from added dG, standing at room temperature or UV irradiation (Examples 1-7).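 As to all read-outs here: Cell-free test: dG in test solution, held at room temperature or exposed to 254 nm UV, then 8OHdG quantified by HPLC with electrochemical detection, compared against dG in ultrapure water.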 To be noted: for 8OHdG concentration, 90 Minutes' UV irradiation / 8OHdG concentration, 90 Minutes' standing: Table 1; for 8OHdG concentration, 90 Minutes' UV irradiation: ultrapure water 0.529; for 8OHdG concentration, 90 Minutes' standing: ultrapure water 0.267.
Protocol: Separately, the amount of 8OHdG after an ultrapure water solution of dG is left to stand under the same conditions as above for a predetermined time is measured (this value is defined as B). If A is greater than B, the test substance is evaluated to have oxidation induction ability and conversely if A is smaller than B, the test substance is evaluated to have antioxidant ability. In either case, it is judged that the greater the difference is, the greater degree of oxidation induction ability or antioxidant capability the test substance has.
Then, 20 μl of 200 μg/ml dG (dissolved in ultrapure water) was added to each well and one of the plates was left to stand as it was at room temperature for 90 minutes and the other plate was irradiated with UV light (254 nm, 860 μW/cm^2) for 90 minutes in a UV light irradiation box. […] Subsequently, nucleosides in the both were quantified by use of the UV light absorption analyzer connected to the HPLC and the electrochemical detector.
Solutions of predetermined concentrations of vitamin C (VC), vitamin E (VE), catechin (Cate) and tannic acid (Tan) were prepared and 180 μl portions were injected into each well of two 99-well plastic plates. Then, 20 μl of 200 μg/ml dG (dissolved in ultrapure water) was added to each well and one of the plates was left to stand as it was at room temperature for 90 minutes and the other plate was irradiated with UV light (254 nm, 860 μW/cm^2) for 90 minutes in a UV light irradiation box.
Then, 20 μl of 200 μg/ml dG (dissolved in ultrapure water) was added to each well and one of the plates was left to stand as it was at room temperature for 90 minutes and another plate was left to stand similarly at room temperature for 24 hours. The remaining three plates were irradiated with UV light (254 nm, 860 μW/cm^2) for 60 minutes, 90 minutes and 120 minutes, respectively, in a UV light irradiation box.
Solutions of predetermined concentrations of glucose (Glu), raffinose (Raffi) and sucrose (Suc) were prepared and 180 μl portions thereof were injected into each well of four 99-well plastic plates. Then, 20 μl of 200 μg/ml dG (dissolved in ultrapure water) was added to each well and one of the plates was left to stand as it was at room temperature for 90 minutes. The remaining three plates were irradiated with UV light (254 nm, 860 μW/cm^2) for 60 minutes, 90 minutes and 120 minutes, respectively, in a UV light irradiation box.
Then, 20 μl of 200 μg/ml dG (dissolved in ultrapure water) was added to each well and one of the plates was left to stand as it was at room temperature for 90 minutes and the other plate was irradiated with UV light (254 nm, 860 μW/cm^2) for 90 minutes in a UV light irradiation box.
Solutions of various concentrations of uric acid (dissolving fluid: distilled water+0.025% FBS) were prepared and 180 μl portions thereof were injected into each well of two 99-well plastic plates. Then, 20 μl of 200 μg/ml dG (dissolved in ultrapure water) was added to each well and one of the plates was left to stand as it was at room temperature for 90 minutes and the other plate was irradiated with UV light (254 nm, 860 μW/cm^2) for 90 minutes in a UV light irradiation box.

Data set [2] relates to 2′-deoxyguanosine (dG). Briefly: 8OHdG produced from dG with test substance and coexisting bisphenol A, standing or UV (Example 9). To be noted: for 8OHdG concentration, 90 Minutes' standing: ultrapure water 0.21; for 8OHdG concentration, 90 Minutes' UV irradiation: ultrapure water 0.64. It is filed as biochemical. The method, then:
170 μl portions of ultrapure water and predetermined concentrations of vitamin C (VC), vitamin E (VE), and glucose (Glu) as test substance were added to each well of two […] plastic plates and, as additional solution, 20 μl of ultrapure water or predetermined concentration of bisphenol A (BPA) were injected into each well.

The conditions of data set [3]: common in every country; cited from earlier work.
The subject of data set [4] is 2′-deoxyguanosine (dG). In words: 8OHdG produced from dG in presence of potassium bromate as active oxygen generator (Example 8). It is filed as biochemical. To be noted: with KBrO3, ultrapure water 2.699.
Data set [5] relates to 2′-deoxyguanosine (dG). To be noted: KBrO3 30 minutes; for dG: pure water ctrl 1.067; for 8OHdG/dG × 10^−3: pure water ctrl 3.542; for 8OHdG × 10^−3: pure water ctrl 3.779.
[6] abbreviates: BPA 0.5 ppm added to ultrapure water.
Where [7] appears, read: BPA 5 ppm added to ultrapure water.
Setting [8] is: BPA 50 ppm added to ultrapure water.

Like-named read-outs stand apart in the source and are kept apart here. A value given as a limit tells only on which side of the number the result lay.

Regarding `CC(C)(c1ccc(O)cc1)c1ccc(O)cc1` [BPA, bisphenol A], the “8OHdG concentration, 90 Minutes' UV irradiation” value is 0.689 ng/mL in the data set with 2′-deoxyguanosine (dG) [1] (0.0005 ppm); 0.794 ng/mL with 2′-deoxyguanosine (dG) [1] (0.005 ppm); 0.614 ng/mL with 2′-deoxyguanosine (dG) [1] (0.05 ppm); 1.736 ng/mL in the data set on 2′-deoxyguanosine (dG) [1] (0.5 ppm); 7.142 ng/mL with 2′-deoxyguanosine (dG) [1] (5 ppm); 2.09 ng/mL with 2′-deoxyguanosine (dG) [2] (setting [6]). For the same molecule, the “8OHdG concentration, 90 Minutes' UV irradiation” value in the data set on 2′-deoxyguanosine (dG) [2] (setting [7]) turned out to be 6.19 ng/mL; in the data set with 2′-deoxyguanosine (dG) [2] (setting [8]) it was 11.58 ng/mL. Further, the “8OHdG concentration, 90 Minutes' standing” value was 0.315 ng/mL in the data set with 2′-deoxyguanosine (dG) [1] (0.005 ppm); 0.231 ng/mL in the data set with 2′-deoxyguanosine (dG) [1] (0.5 ppm); 0.192 ng/mL in the data set on 2′-deoxyguanosine (dG) [1] (5 ppm); 0.19 ng/mL in the data set on 2′-deoxyguanosine (dG) [2] (setting [6]); 0.31 ng/mL in the data set with 2′-deoxyguanosine (dG) [2] (setting [7]); 0.22 ng/mL with 2′-deoxyguanosine (dG) [2] (setting [8]). The “concentration at which oxidation injury activity due to UV light is elevated (harmfulness increased)” value in the data set on 2′-deoxyguanosine (dG) [1] (Example 1, 90 minutes UV) is reported as at least 0.5 ppm. Further, in the data set on 2′-deoxyguanosine (dG) [2] (Example 9), the “effect on 8OHdG with BPA and UV light irradiation” value is recorded as “increases depending on concentration”. The Acceptable uptake amount in data set [3] is reported as 0.05 mg/kg/day.
As for `O=C([O-])CN(CCN(CC(=O)[O-])CC(=O)[O-])CC(=O)[O-].[Na+].[Na+].[Na+].[Na+]` [EDTA, sodium ethylenediaminetetraacetate], the “8OHdG concentration, 30 Minutes' standing” value in the data set with 2′-deoxyguanosine (dG) [4] (1 mM) came out at 0.784 ng/mL. In the data set with 2′-deoxyguanosine (dG) [5] (1 mM), the dG is listed as 0.997 VS, the “8OHdG/dG × 10^−3” value is 1.101 × 10^−3 and the “8OHdG × 10^−3” value worked out at 1.098 mVs. The same molecule registered a Relative initial magnification with 2′-deoxyguanosine (dG) [5] (1 mM, pure water ctrl 13.47) of 4.19 times.
In the case of `OCC(O)CO` [Gly, glycerol], the “8OHdG concentration, 30 Minutes' standing” value with 2′-deoxyguanosine (dG) [4] (10%) was 1.123 ng/mL. In addition, in the data set with 2′-deoxyguanosine (dG) [5] (10%), the dG came out at 1.044 VS, the “8OHdG/dG × 10^−3” value is given as 1.506 × 10^−3 and the “8OHdG × 10^−3” value was found to be 1.572 mVs.
